The text below walks through data of patent US11993576B2, “N-benzyl-N-arylsulfonamide derivative and preparation and use thereof” (Hangzhou Yirui Pharmaceutical Technology Co., Ltd, priority 2019, dated 2024).

SMILES strings stand for the structures. “Also recorded” adds a separate entry of the source.

In experiment [1] the target is T1, human Kv1.3 (Homo sapiens, UniProt P22001). The experiment can be described thus: Conventional patch clamp assay of inhibitory activity against Kv1.3. Type of experiment: cell-based. The following applies: conventional patch-clamp method; CHO-K1 cells stably expressing human Kv1.3. The text has this:
II. Conventional Patch Clamp Assay of Inhibitory Activity Against Kv1.3
In order to compare the influence of different assay methods on the inhibitory activity of a compound, the conventional patch clamp method was used to assay the inhibitory activities of compounds 21, 37, 44, 61 against Kv1.3. The principle and method for the conventional patch clamp method can be found in Grissmer et al. [Grissmer et al. Molecular Pharmacology 1994, 45:1227-1234].
Inhibitory activity of the compounds against Kv1.3 was assessed using a CHO-K1 recombinant cell line stably expressing human Kv1.3 (Charles River, California). The cells were cultured in an F-12K culture medium containing 5% calf serum (Invitrogen, Carlsbad.ca) in an incubator at 37° C. and under air humidity with 6% CO2.
(§1) During the experiment, adherent cells were placed in a recording chamber under an inverted microscope. All the experiments were performed at room temperature. Each of the cells used itself as the control.
(§2) The test compounds were formulated to their final concentrations on the day of assay, and then dissolved in an extracellular fluid. The extracellular fluid (mM) was: NaCl, 137; KCl, 4; CaCl2, 1.8; MgCl2, 1; HEPES, 10; glucose 10; pH 7.4 (NaOH titration). All the solutions of the test compounds and the control compounds contained 0.3% of DMSO.
Each of the compounds was perfused by a gravity-driven perfusion system. At least two cells were tested for each of the concentrations of a compound. After the current was stable, the blocking effect of the compounds was calculated by comparing the change in the current before and after administration of the compounds. 1000 μM 4-AP was used as a positive control.
(§3) The cells were transferred to a perfusion chamber, and were perfused with the extracellular fluid. Intracellular fluid (mM): K-aspartate, 130; MgCl2, 5; EGTA 5; HEPES, 10; pH 7.2 (KOH titration). The intracellular fluid was stored in a small amount in a refrigerator at −80° C. in batches, and was thawed on the day of the experiment. The electrodes were drawn by PC-10 (Narishige, Japan). A whole-cell patch-clamp recording was performed, with the noise being filtered by one-fifth of the sampling frequency.
The cells were clamped at −80 mV and then depolarized to 0 mV with square waves lasting for 2 seconds to obtain a Kv1.3 current. This process was repeated every 20 seconds. The maximum current elicited by the square waves was detected. After the maximum current became stable, the test compounds were perfused. After the reaction was stable, the blocking strength was calculated.
Data was collected and analyzed using pCLAMP 10 (Molecular Devices, Union City, CA). A stable current meant a current which varies within a limited range over time. […]
A general note: In patch-clamp work, channel activity is measured electrically.

In experiment [2] the target is T1, human Kv1.3. The experiment can be described thus: IonWorks automated patch clamp assay of inhibitory activity against Kv1.3. Type of experiment: cell-based. The following applies: automated patch clamp method; CHO-K1 cells stably expressing human Kv1.3. The procedure:
I. IonWorks Automated Patch Clamp Assay of Inhibitory Activity Against Kv1.3
The principle and method for Kv1.3 IonWorks assay can be found in Schroeder et al. [Schroeder et al. J Biomol Screen 2003, 8(1):50-64]
Inhibitory activity of the compounds against Kv1.3 was assessed using a CHO-K1 recombinant cell line stably expressing human Kv1.3 (Charles River, Calif.). The cells were cultured in an F-12K culture medium containing 5% calf serum (Invitrogen, Carlsbad. Calif.) in an incubator at 37° C. and under air humidity with 6% CO2. Prior to be fed in the IonWorks system, the adherent cells were treated with Versene at 37° C. for 6-7 min. After gently beating the culture flask, the cells were re-suspended in a PBS phosphate buffer, and then were centrifuged at 50×g for 4 min. After a short grinding, the cells were eventually re-suspended in an external recording solution at a density of approximately 1×10^6/mL.
The compounds were dissolved in DMSO to formulate a final assay concentration of 300× on the master plate. The final gradient assay concentrations were […], 0.096, 0.048, 0.24, 1.2, 6 and 30 μM. All 300× stock solutions of each compound in DMSO were transferred to a 384-well plate with 2 μl per well. The plates were sealed and stored at −80° C. until the day of assay.
On the day of assay, the plates were each thawed at room temperature. After centrifugation, 198 μl of the external recording solution (with the components of: 130 mM Na-Gluconate, 20 mM NaCl, 4 mM KCl, 1 mM MgCl2, 1.8 mM CaCl2, 5 mM Glucose and 10 mM HEPES, pH7.3) was added and mixed thoroughly. This step provided a 1:100 dilution for the compounds. After addition of cells to IonWorks, a further 1:3 dilution was carried out, resulting in a total dilution of 1:300. At least 8 wells were reserved as blank control on each of the plates, i.e., containing only 0.3% DMSO. In addition, at least 8 wells were reserved as positive control to detect the specificity to cell signals. Fluoxetine, a compound as the positive control, was assayed at its maximum blocking concentration (100 μm) and secondary maximum blocking concentration (10 μm). In addition, an internal recording solution used in the assay (with the components of: 100 mM K-gluconate, 40 mM KCl, 1 mM MgCl2, 1 mM EGTA and 10 mM HEPES, pH7.3) contained Amphotericin B at a final concentration of 200 μg/mL to gain current channels inside the cells. The osmotic pressure of the solution was adjusted with sucrose.
Experimental procedures were carried out following the protocols as set by IonWorks Quattro system (Molecular Devices, San Jose, CA). The current of human Kv1.3 was elicited to 0 millivolt (mV) for four times by a pulse lasting 1 second. A potential of −80 mV was maintained between pulses, for 5 seconds. First, a early voltage application program was started in the IonWorks Quattro system, and then the compounds were added and incubated for 600 seconds. Next, a late voltage application program was started until completion of all assays.
The maximum peak outward currents both before and after addition of the compounds as well as the average tail current elicited when the fourth pulse rose to 0 mV were measured. The inhibitory activity of the compounds against Kv1.3 can be calculated by dividing the measured current amplitude after addition of the compounds by the measured current amplitude before addition of the compounds.
All data was calibrated by a data filtration program of the IonWorks Quattro system. The filtration standard was that: seal quality >30 MΩ, decrease of seal resistance <50% and current amplitude >200 pA.

The target of experiment [3] is human Kv1.5 (Homo sapiens, UniProt P22460). The experiment can be described thus: Conventional patch clamp assay of inhibitory activity against Kv1.5. In kind it is cell-based. The following applies: conventional patch-clamp method; CHO-K1 cells stably expressing human Kv1.5. The method, then: III. Conventional Patch Clamp Assay of Inhibitory Activity Against Kv1.5
human Kv1.5, sequence (P22460 whole entry): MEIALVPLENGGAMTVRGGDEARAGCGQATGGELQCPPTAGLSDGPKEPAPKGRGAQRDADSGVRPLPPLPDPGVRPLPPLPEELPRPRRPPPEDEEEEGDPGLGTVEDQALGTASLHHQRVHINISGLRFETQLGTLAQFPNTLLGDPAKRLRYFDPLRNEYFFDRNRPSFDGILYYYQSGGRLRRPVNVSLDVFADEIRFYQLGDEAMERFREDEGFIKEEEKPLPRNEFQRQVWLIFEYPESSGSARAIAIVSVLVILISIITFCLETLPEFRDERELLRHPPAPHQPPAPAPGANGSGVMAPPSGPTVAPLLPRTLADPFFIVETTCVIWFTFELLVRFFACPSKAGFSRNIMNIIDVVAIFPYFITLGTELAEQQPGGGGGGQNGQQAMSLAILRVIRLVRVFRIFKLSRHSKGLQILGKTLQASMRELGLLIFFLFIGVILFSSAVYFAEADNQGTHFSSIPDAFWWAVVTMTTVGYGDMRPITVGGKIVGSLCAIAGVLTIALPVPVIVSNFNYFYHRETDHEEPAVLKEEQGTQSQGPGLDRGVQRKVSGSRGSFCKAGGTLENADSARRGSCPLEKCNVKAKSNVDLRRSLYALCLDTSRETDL
The principle and method for the conventional patch clamp method can be found in Grissmer et al. [Grissmer et al. Molecular Pharmacology 1994, 45:1227-1234].
Inhibitory activity of a compounds against Kv1.5 was assessed using a CHO-K1 recombinant cell line stably expressing human Kv1.5 (Charles River, Calif.). The cells were cultured in an F-12K culture medium containing 5% calf serum (Invitrogen, Carlsbad.ca) in an incubator at 37° C. and under air humidity with 6% CO2.
as §1, §2
Each of the compounds was perfused by a gravity-driven perfusion system. At least two cells were tested for each of the concentrations of a compound. After the current was stable, the blocking effect of the compounds was calculated by comparing the change in the current before and after administration of the compounds.
1000 μM 4-AP was used as a positive control.
as §3
The cells were clamped at −80 mV and then depolarized to 20 mV with square waves lasting for 2 seconds to obtain a Kv1.5 current. This process was repeated every 20 seconds. The maximum current elicited by the square waves was detected. After the maximum current became stable, the test compounds were perfused. After the reaction was stable, the blocking strength was calculated.
Data was collected and analyzed using pCLAMP 10 (Molecular Devices, Union City, CA). A stable current meant a current which varies within a limited range over time. The value of the stable current was used to calculate the effect of a compound at this […].

The subject of experiment [4] is rat model of psoriasis induced by imiquimod. The experiment can be described thus: Rat model of psoriasis induced by imiquimod. Type of experiment: in vivo. The following applies: Wista female rats; for pathological analysis of skin (HE×100): skin lesions of the back collected on day 11, FIG. 3. The method, then: V. Effects of Compound 24 on a Rat Model of Psoriasis Induced by Imiquimod
SPF Wista female rats with body weight of around 200 g were used.
Dexamethasone (DXMS) sodium phosphate injection, 5 mg/ml/injection (Shiyao Yinhu Pharmaceutical Co., Ltd.); 5% imiquimod cream, 0.25 g/pack (Sichuan MED-SHINE Pharmaceutical Co., Ltd.); 3×10^6 U recombinant human interferon α-2a injection, 1.0 ml/vial (Shenyang Sunshine Pharmaceutical Co., Ltd.); vehicle and negative control: acetone/DMSO 9:1 (Vehicle).
3.1 The animals were randomly divided into 6 groups based on body weight with 10 animals per group: normal control group, model control group, positive control group (dexamethasone sodium phosphate injection 5 mg/mL), 1% Compound 24 group, 0.3% Compound 24 group and 0.1% Compound 24 group.
3.2 Modelling and administration: after adaptive feeding for several days, for each of the rats, hair in central area of the back (2 cm×2 cm) was shaved, and then the surface short hair was shaved with mild depilatory cream, washed and dried. If hair on the back grew out again during the experiment, the hair was removed with a razor. Every morning, for the rats in model control group and administration groups, 5% imiquimod cream was evenly applied on the back at 20 mg/cm^2 (0.25 g/pack, for 3 rats), and after 10 min, recombinant human interferon α-2a injection was injected intraperitoneally at 10,000 U/500 g; for the normal control group, the rats were not treated, once a day, for 10 days. In the afternoon, for the rats in the administration groups, drugs were applied at a corresponding dose (drugs with corresponding concentrations were applied on the back at 100 μL/rat, twice, 50 μL each time) once a day for 10 days.
3.3 Psoriasis Area and Severity Index (PASI) score: according to PASI scoring standard, a score of 0-4 was given for erythema, scale and epidermal thickening of infiltration in the lesional skin of rats. The scoring criteria was as follows: 0, none; 1, mild; 2, moderate; 3, severe; 4, extremely severe. For the rats in each of the groups, the scores were averaged and changes in skin lesions of the rats were observed.
3.4 HE staining: after completion of modeling (on day 11), the tissues with skin lesions on the back of rats were collected, fixed with 4% neutral formaldehyde, embedded in paraffin, and sectioned. After HE staining, changes in skin histomorphology were observed under a microscope, and Baker scoring was performed. […]
3.5 Statistical Methods: all data was expressed as mean±standard deviation (x±s). […]

T1 sequence (P22001 whole entry): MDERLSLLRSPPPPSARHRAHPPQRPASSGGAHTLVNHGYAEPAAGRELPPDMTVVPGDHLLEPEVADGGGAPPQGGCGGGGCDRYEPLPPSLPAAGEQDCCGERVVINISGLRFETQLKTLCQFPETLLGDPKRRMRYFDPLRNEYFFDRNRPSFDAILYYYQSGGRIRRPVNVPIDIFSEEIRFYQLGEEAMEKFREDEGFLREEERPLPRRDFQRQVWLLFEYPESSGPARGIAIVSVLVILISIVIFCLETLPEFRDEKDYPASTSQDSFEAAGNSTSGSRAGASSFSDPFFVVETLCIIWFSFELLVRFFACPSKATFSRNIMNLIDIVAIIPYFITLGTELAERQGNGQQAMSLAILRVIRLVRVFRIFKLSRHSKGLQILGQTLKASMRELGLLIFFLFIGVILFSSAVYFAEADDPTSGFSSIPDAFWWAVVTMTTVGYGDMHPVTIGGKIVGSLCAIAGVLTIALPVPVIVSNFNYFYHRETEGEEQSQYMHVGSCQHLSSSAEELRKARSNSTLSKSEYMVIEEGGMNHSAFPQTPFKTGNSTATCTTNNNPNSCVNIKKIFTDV

A word on the IC50: it is the concentration that gives 50% inhibition. High values mean weaker potency in that assay, low ones greater potency in that assay. Consider `CCCS(=O)(=O)N(Cc1ccc(F)cc1)c1ccc(N2CCN(C(=O)N(C)C)CC2)c(C#N)c1` [Compound 21, 4-(2-cyano-4-(N-(4-fluorobenzyl)propyl)phenyl)-N,N-dimethylpiperazin-1-formamide], for which the IC50 in experiment [1] was determined as 141 nM; in experiment [2], 97 nM; in experiment [3] it was 2820 nM.
In experiment [2], `CCCS(=O)(=O)N(Cc1ccc(Cl)cc1)c1ccc(N2CCN(C(=O)OCC)CC2)c(C#N)c1` [Compound 24] had an IC50 of 86 nM. Also, in experiment [4] (1%, 0.3%, 0.1% applied on the back once a day for 10 days, FIG. 2A), the PASI score entry was “had a significant effect on psoriasis in a dose-dependent manner; also recorded: exhibited a significant efficacy on psoriasis in a dose-dependent manner”. Besides, the Baker score result in experiment [4] (1%, 0.3%, 0.1% applied on the back once a day for 10 days, HE staining day 11, FIG. 2B) was “had a significant effect on psoriasis in a dose-dependent manner; also recorded: exhibited a significant efficacy on psoriasis in a dose-dependent manner”. The “pathological analysis of skin (HE×100)” value in experiment [4] was “had a significant effect on psoriasis in a dose-dependent manner”; in experiment [4] (listed as compound 24), “the skin structure was intact, the granular layer was visible, the skin was partly lengthened and clubbed, no acanthosis was observed, and a small amount infiltration of inflammatory cells was observed in the dermis”.
For the compound `CCCS(=O)(=O)N(Cc1ccc(Cl)cc1)c1ccc(N2CCN(S(=O)(=O)N(C)C)CC2)c(C#N)c1` [Compound 44, 4-(4-(N-(4-chlorobenzyl)propanesulfonamido)-2-cyanophenyl)-N,N-dimethylpiperazin-1-sulfonamide], the IC50 in experiment [1] was determined as 111 nM; in experiment [2], 96 nM; in experiment [3], 7900 nM.
In turn, `N#Cc1cc(N(Cc2ccccc2)S(=O)(=O)c2ccccc2)ccc1OC1CCN(C=O)CC1` [Compound 60, N-(4-((1-formylpiperidin-4-yl)oxy)-3-cyanophenyl)-N-benzylbenzenesulfonamide] displayed a half-inhibitory concentration (IC50) in experiment [2] of 332 nM.
For `CCCS(=O)(=O)N(Cc1ccccc1)c1ccc(N2CCN(C(=O)OCC)CC2=O)c(C#N)c1` [Compound 61, ethyl 4-(4-(N-benzylpropanesulfonamido)2-cyanophenyl)-3-oxopiperazin-1-formate], the half-inhibitory concentration (IC50) in experiment [1] came out at 130 nM; in experiment [2], 92 nM; in experiment [3] it was 2110 nM.
